Assay results as given in patent US9593140B2, “Antibacterial tylosin derivatives and methods for their preparation” (Bayer Intellectual Property GmbH, priority 2011, dated 2017).

Tested on: Mannhemia hemolytica KB345
Assay: Paper disc assay, M. hemolytica KB345 (Tilmicosin-sensitivity strain)
Assay type: cell-based
Settings: 24 h, Table 2; for zone of inhibition at 3 mg/disc: 3 mg/6 mm disk; for zone of inhibition at 10 mg/disc: 10 mg/6 mm disk; for zone of inhibition at 30 mg/disc: 30 mg/6 mm disk; for zone of inhibition at 100 mg/disc: 100 mg/6 mm disk; for zone of inhibition at 1 mg/disc: 1 mg/6 mm disk
Protocol: (1) Antibacterial Activities Against Mannheimia and Pasteurella were Determined by the Following Steps:
1) M. hemolytica KB345 (Tilmicosin-sensitivity strain) and M. hemolytica KB346 (Tilmicosin-low sensitivity strain) were provided. KB 345 strain stored at −80° C. was seeded to BHIB agar medium (10 mL) by using Microbank beads (Pro-Lab) and platinum nail. After statically incubating the KB 345 strain for 24 hours at 37° C., it was seeded to maintaining slant BHIB agar medium (7 mL) by using platinum loop, further statically incubated for 24 hours at 37° C. to obtain slant. One platinum loop of KB 345 strain stored at the slant was inoculated into a large test tube charged with BHIB liquid medium (10 mL) and then incubated for 24 hours at 37° C. with shaking.
2) A paper disc (ADVANTEC, Φ:6 mm) was impregnated with a solution of test compound and dried under reduced pressure.
3) To a melted BHIB agar medium was inoculated 1% of the broth obtained from step 1) above to prepare a test plate. After the medium set, the paper disc prepared in step 2) above was put on the plate and it was incubated at 37° C.
4) After one day, the inhibition zone diameter and clarity (A to E) were determined.

Compound | zone of inhibition at 3 mg/disc [mm] | zone of inhibition at 10 mg/disc [mm] | zone of inhibition at 30 mg/disc [mm] | zone of inhibition at 100 mg/disc [mm] | zone of inhibition at 1 mg/disc [mm]
CC[C@H]1OC(=O)C[C@@H](O)[C@H](C)[C@@H](O[C@@H]2OC(C)[C@@H](O)C(N(C)C)C2O)[C@@H](CCn2cc(-c3cccnc3)nn2)C[C@@H](C)C(=O)/C=C/C(C)=C/[C@@H]1CO[C@@H]1OC(C)[C@@H](O)C(OC)C1OC (stereo partly drawn) [YT16, 20-(4-(pyridine-3-yl)-1H-1,2,3-triazol-1-yl)-20-deoxodesmycosin] | 11.5 | 14.5 | 16.5 | 19 | –
CC[C@H]1OC(=O)C[C@@H](O)[C@H](C)[C@@H](O[C@@H]2OC(C)[C@@H](O)C(N(C)C)C2O)[C@@H](CCn2cc(-c3ccc(Oc4ccccc4)cc3)nn2)C[C@@H](C)C(=O)/C=C/C(C)=C/[C@@H]1CO[C@@H]1OC(C)[C@@H](O)C(OC)C1OC (stereo partly drawn) [YT24, 20-(4-(4-phenoxyphenyl)-1H-1,2,3-triazol-1-yl)-20-deoxodesmycosin] | 12 | 14.5 | 17 | 18 | 8.5
CC[C@H]1OC(=O)C[C@@H](O)[C@H](C)[C@@H](O[C@@H]2OC(C)[C@@H](O)C(N(C)C)C2O)[C@@H](CCn2cc(-c3ccc(-c4ccccc4)cc3)nn2)C[C@@H](C)C(=O)/C=C/C(C)=C/[C@@H]1CO[C@@H]1OC(C)[C@@H](O)C(OC)C1OC (stereo partly drawn) [YT21] | 13.5 | 15.5 | 18 | 19 | 11.5
CC[C@H]1OC(=O)C[C@@H](O)[C@H](C)[C@@H](O[C@@H]2OC(C)[C@@H](O)C(N(C)C)C2O)[C@@H](CCn2cc(-c3cc(C)c(C)cc3C)nn2)C[C@@H](C)C(=O)/C=C/C(C)=C/[C@@H]1CO[C@@H]1OC(C)[C@@H](O)C(OC)C1OC (stereo partly drawn) [YT25, 20-(4-(2,4,5-trimethylphenyl)-1H-1,2,3-triazol-1-yl)-20-deoxodesmycosin] | 12 | 14 | 17 | 18.5 | 8
CCCCCOc1ccc(-c2cn(CC[C@H]3C[C@@H](C)C(=O)/C=C/C(C)=C/[C@H](CO[C@@H]4OC(C)[C@@H](O)C(OC)C4OC)[C@@H](CC)OC(=O)C[C@@H](O)[C@H](C)[C@H]3O[C@@H]3OC(C)[C@@H](O)C(N(C)C)C3O)nn2)cc1 (stereo partly drawn) [YT27, 20-(4-(4-pentyloxyphenyl)-1H-1,2,3-triazol-1-yl)-20-deoxodesmycosin] | 9 | 11 | 13 | 16 | –
CC[C@H]1OC(=O)C[C@@H](O)[C@H](C)[C@@H](O[C@@H]2OC(C)[C@@H](O)C(N(C)C)C2O)[C@@H](CCn2cc(-c3cnc4ccccc4c3)nn2)C[C@@H](C)C(=O)/C=C/C(C)=C/[C@@H]1CO[C@@H]1OC(C)[C@@H](O)C(OC)C1OC (stereo partly drawn) [YT35, 20-(4-(3-quinoline)-1H-1,2,3-triazol-1-yl)-20-deoxodesmycosin] | 14 | 17 | 19 | 21 | –
CC[C@H]1OC(=O)C[C@@H](O)[C@H](C)[C@@H](O[C@@H]2O[C@H](C)[C@@H](O[C@H]3C[C@@](C)(O)[C@@H](O)[C@H](C)O3)[C@H](N(C)C)[C@H]2O)[C@@H](CC=O)C[C@@H](C)C(=O)/C=C/C(C)=C/[C@@H]1CO[C@@H]1O[C@H](C)[C@@H](O)[C@@H](OC)[C@H]1OC [Tylosin] | – | – | 10.5 | 11 | –
CCOC(=O)c1cn(CC[C@H]2C[C@@H](C)C(=O)/C=C/C(C)=C/[C@H](CO[C@@H]3OC(C)[C@@H](O)C(OC)C3OC)[C@@H](CC)OC(=O)C[C@@H](O)[C@H](C)[C@H]2O[C@@H]2OC(C)[C@@H](O)C(N(C)C)C2O)nn1 (stereo partly drawn) [YT22, 20-(4-ethoxycarbonyl-1H-1,2,3-triazol-1-yl)-20-deoxodesmycosin] | 11.5 | 14.5 | 18 | 21 | 7.5
CC[C@H]1OC(=O)C[C@@H](O)[C@H](C)[C@@H](O[C@@H]2OC(C)[C@@H](O)C(N(C)C)C2O)[C@@H](CCn2cc(Cn3nnc4ccccc43)nn2)C[C@@H](C)C(=O)/C=C/C(C)=C/[C@@H]1CO[C@@H]1OC(C)[C@@H](O)C(OC)C1OC (stereo partly drawn) [YT28, 20-(4-(1-methyl-1H-benzotriazole)-1H-1,2,3-triazol-1-yl)-20-deoxodesmycosin] | 11 | 13 | 16 | 19 | –
CC[C@H]1OC(=O)C[C@@H](O)[C@H](C)[C@@H](O[C@@H]2OC(C)[C@@H](O)C(N(C)C)C2O)[C@@H](CCn2cc(-c3cccc(N)c3)nn2)C[C@@H](C)C(=O)/C=C/C(C)=C/[C@@H]1CO[C@@H]1OC(C)[C@@H](O)C(OC)C1OC (stereo partly drawn) [YT17] | 12 | 14 | 18 | 19.5 | –
CC[C@H]1OC(=O)C[C@@H](O)[C@H](C)[C@@H](O[C@@H]2OC(C)[C@@H](O)C(N(C)C)C2O)[C@@H](CCn2cc(-c3ccc(N)cc3)nn2)C[C@@H](C)C(=O)/C=C/C(C)=C/[C@@H]1CO[C@@H]1OC(C)[C@@H](O)C(OC)C1OC (stereo partly drawn) [YT18] | 11 | 14.5 | 17 | 19.5 | –
CC[C@H]1OC(=O)C[C@@H](O)[C@H](C)[C@@H](O[C@@H]2OC(C)[C@@H](O)C(N(C)C)C2O)[C@@H](CCn2cc(CCCCO)nn2)C[C@@H](C)C(=O)/C=C/C(C)=C/[C@@H]1CO[C@@H]1OC(C)[C@@H](O)C(OC)C1OC (stereo partly drawn) [YT36, 20-(4-(4-butanol)-1H-1,2,3-triazol-1-yl)-20-deoxodesmycosin] | – | – | – | 9 | –
CC[C@H]1OC(=O)C[C@@H](O)[C@H](C)[C@@H](O[C@@H]2OC(C)[C@@H](O)C(N(C)C)C2O)[C@@H](CCn2cc(-c3ccc(C(C)(C)C)cc3)nn2)C[C@@H](C)C(=O)/C=C/C(C)=C/[C@@H]1CO[C@@H]1OC(C)[C@@H](O)C(OC)C1OC (stereo partly drawn) [YT26, 20-(4-(4-t-butylphenyl)-1H-1,2,3-triazol-1-yl)-20-deoxodesmycosin] | 9 | 11.5 | 14 | 16 | –
CC[C@H]1OC(=O)C[C@@H](O)[C@H](C)[C@@H](O[C@@H]2OC(C)[C@@H](O)C(N(C)C)C2O)[C@@H](CCn2cc(CO)nn2)C[C@@H](C)C(=O)/C=C/C(C)=C/[C@@H]1CO[C@@H]1OC(C)[C@@H](O)C(OC)C1OC (stereo partly drawn) [YT37, 20-(4-(methanol)-1H-1,2,3-triazol-1-yl)-20-deoxodesmycosin] | – | – | 9 | 12.5 | –
CCCCCCCCCc1cn(CC[C@H]2C[C@@H](C)C(=O)/C=C/C(C)=C/[C@H](CO[C@@H]3OC(C)[C@@H](O)C(OC)C3OC)[C@@H](CC)OC(=O)C[C@@H](O)[C@H](C)[C@H]2O[C@@H]2OC(C)[C@@H](O)C(N(C)C)C2O)nn1 (stereo partly drawn) [YT34, 20-(4-nonyl-1H-1,2,3-triazol-1-yl)-20-deoxodesmycosin] | 11 | 13 | 14 | 15 | –
CCCCc1cn(CC[C@H]2C[C@@H](C)C(=O)/C=C/C(C)=C/[C@H](CO[C@@H]3OC(C)[C@@H](O)C(OC)C3OC)[C@@H](CC)OC(=O)C[C@@H](O)[C@H](C)[C@H]2O[C@@H]2OC(C)[C@@H](O)C(N(C)C)C2O)nn1 (stereo partly drawn) [YT20, 20-(4-butyl-1H-1,2,3-triazol-1-yl)-20-deoxodesmycosin] | 11.5 | 16 | 17.5 | 20 | 9
CCCNC[C@]1(O)[C@H](C)O[C@@H](O[C@H]2[C@H](C)[C@@H](O[C@@H]3O[C@H](C)C[C@H](N(C)C)[C@H]3O)[C@](C)(O)C[C@@H](C)CN[C@H](C)[C@@H](O)[C@](C)(O)[C@@H](CC)OC(=O)[C@@H]2C)C[C@@]1(C)OC [Tulathromycin, reference compound] | 16 | 18 | – | – | 12.5
CC[C@H]1OC(=O)C[C@@H](O)[C@H](C)[C@@H](O[C@@H]2OC(C)[C@@H](O)C(N(C)C)C2O)[C@@H](CCn2cc(C(C)(C)O)nn2)C[C@@H](C)C(=O)/C=C/C(C)=C/[C@@H]1CO[C@@H]1OC(C)[C@@H](O)C(OC)C1OC (stereo partly drawn) [YT32, 20-(4-(1-methyl-1-hydroxylethyl)-1H-1,2,3-triazol-1-yl)-20-deoxodesmycosin] | – | 9 | 14 | 16 | –
CC[C@H]1OC(=O)C[C@@H](O)[C@H](C)[C@@H](O[C@@H]2OC(C)[C@@H](O)C(N(C)C)C2O)[C@@H](CCn2cc(CC(C)C)nn2)C[C@@H](C)C(=O)/C=C/C(C)=C/[C@@H]1CO[C@@H]1OC(C)[C@@H](O)C(OC)C1OC (stereo partly drawn) [YT33, 20-(4-(2-methyl-propyl)-1H-1,2,3-triazol-1-yl)-20-deoxodesmycosin] | 13 | 16 | 17 | 20 | –
